Experimental data published in patent US9078852B2, “Retinaldehyde in the treatment of obesity, diabetes and other conditions” (The Brigham and Women's Hospital, Inc., priority 2008, dated 2015).
Like-named read-outs stand apart in the source and are kept apart here.

Columns and labels:
[1] = test system: 3T3-L1 mouse pre-adipocyte; experiment: 3T3-L1 pre-adipocyte differentiation (adipogenesis) assay; type: cell-based; details: for adiponectin expression, compound added early: added Day 0 of differentiation; for adiponectin expression / adipogenesis, compound added later: added Day 2 of differentiation
Procedure: We cultured and differentiated mouse 3T3-L1 preadipocytes and primary fibroblasts isolated from 16-days old embryos using standard procedures (Green, et al., Cell 3:127-33 (1974)). After reaching confluence (DMEM, high glucose, 10% calf serum, Day 0), cells were differentiated (3-isobutyl-1-methylxanthine 0.5 mM, dexamethasone 1 μM, insulin 1.7 μM) for 48 h before media replacement every 48 h (DMEM, 10% FCS insulin, 1.7 μM) for 7 days.
Northern blotting was performed as before with HyBond (Amersham; Ziouzenkova, et al., Proc. Natl. Acad. Sci. USA 100:2730-5 (2003)).
(§1) We determined triglyceride content in lysed cells (RIPA buffer, complete protease inhibitor cocktail, Roche) using an enzymatic colorimetric assay (Wako, Japan) and adiponectin levels via ELISA (R&D, Minneapolis). For Western blotting, cell lysates, plasma, and tissue lysates underwent reducing gel separation (10% acrylamide) and hybridization with RXR (Santa Cruz, Calif.), mouse RBP4 (Alpco), or UCP1 (Chemicon) antibodies.
To test Rald effects on adipogenesis, we performed 3T3-L1 mouse pre-adipocyte differentiation assays in the presence of Rald concentrations similar to those found in fat in vivo. Rald levels as low as 100 nM suppressed mRNA expression of the adipogenic target genes CD36, adiponectin, and aP2. These repressive effects of Rald were evident in a concentration-dependent manner in either the presence or absence of the PPARγ agonist BRL49653 (BRL), a potent adipogenic stimulus.

Human full-length PPARγ2 = biological target: T1, Human full-length PPARγ2 (Homo sapiens, UniProt P37231); experiment: Scintillation proximity assay / cell-free radioligand displacement; type: binding
T1 sequence (P37231 1-505): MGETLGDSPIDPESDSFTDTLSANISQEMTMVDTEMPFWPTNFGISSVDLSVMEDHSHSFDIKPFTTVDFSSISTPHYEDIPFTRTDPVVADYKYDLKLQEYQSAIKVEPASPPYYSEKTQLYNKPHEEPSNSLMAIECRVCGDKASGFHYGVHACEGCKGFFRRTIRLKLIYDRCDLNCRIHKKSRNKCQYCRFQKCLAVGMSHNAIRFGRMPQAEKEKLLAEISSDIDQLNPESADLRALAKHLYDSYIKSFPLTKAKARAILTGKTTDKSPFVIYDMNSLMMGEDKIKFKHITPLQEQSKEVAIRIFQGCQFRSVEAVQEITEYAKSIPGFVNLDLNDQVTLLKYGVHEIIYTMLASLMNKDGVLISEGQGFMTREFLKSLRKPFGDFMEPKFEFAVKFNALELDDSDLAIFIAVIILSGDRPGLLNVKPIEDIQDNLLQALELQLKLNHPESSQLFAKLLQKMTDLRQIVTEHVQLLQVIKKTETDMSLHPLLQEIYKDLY
Procedure: Scintillation proximity assays were performed on our behalf.
(§2) Given these effects of Rald on RXR-LBD activation, we next tested if Rald could inhibit activation of a transfected canonical PPAR response element (PPRE) luciferase construct after RXR and/or PPARγ transfection and respective agonist stimulation (9-cis RA or BRL). […] Similar effects were evident in cell-based PPARγ-LBD assays in the presence of BRL. Thus, Rald suppresses adipogenic gene expression, adipocyte lipid accumulation, RXRα and PPARγ-LBD activation, as well as PPRE responses, all at concentrations (<1 μM) that overlap levels present in rodent fat in vivo. Importantly, these Rald effects diverge from the responses seen to RA.

[2] = test system: PPAR response element (PPRE); experiment: PPRE luciferase construct after RXR and/or PPARγ transfection; type: cell-based
Text: (§3) Transient transfection of NIH 3T3 cells (2.3×10^4 cells, 24-well plates) with PCMX-β-galactosidase and LBD/yeast Gal 4/luciferase constructs used Fugene (Roche) as before (Ziouzenkova, et al., Proc. Natl. Acad. Sci. USA 100:2730-5 (2003)). For siRNA transfections, 3T3-L1 cells (90% confluence, antibiotic-free DMEM, 10% CS, 24-well plates) received control (sequences C, D) or specific siRXRα and siRXRβ sequences (Santa Cruz) using Lipofectamine 2000/OptiMEM medium (Invitrogen) and media supplemented with 10% FBS 5 h post-transfection. Western blotting evaluated RXR levels post-transfection (48 h). After transfection (48 h), we induced differentiation before analysis after 7 days.
as §2

RARα-LBD = biological target: T2, RARα-LBD (Homo sapiens, UniProt P10276); experiment: LBD-GAL4 transfection assay, RARα-LBD; type: cell-based
T2 construct: expressed in transfected cells; host or cells: NIH 3T3 cells
T2 sequence (P10276 183-417 limits assumed): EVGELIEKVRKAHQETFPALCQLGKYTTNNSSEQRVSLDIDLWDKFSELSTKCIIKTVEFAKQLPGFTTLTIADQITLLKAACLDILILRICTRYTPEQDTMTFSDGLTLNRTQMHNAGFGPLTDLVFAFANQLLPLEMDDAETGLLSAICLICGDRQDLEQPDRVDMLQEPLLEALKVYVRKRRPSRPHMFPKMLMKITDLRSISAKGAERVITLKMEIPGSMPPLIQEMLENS
Text: as §3
(§4) Given Rald's suppression of PPARγ agonist-stimulated adipogenesis and adiponectin release, we tested if Rald altered activation of RAR and RXR, and if it did so in a way distinct from other retinoids. Ligand binding domain (LBD)-GAL4 transfection assays were performed in 3T3-NIH fibroblasts in the presence or absence of known specific nuclear receptor agonists and/or Rald. […] Rald alone had no effect on RXRα-LBD activation. […] Thus, Rald plays a distinct, independent role from RA in RXRα-LBD regulation, suppressing ligand-mediated activation.

[3] = test system: preadipocytes isolated from human visceral fat depots; experiment: Adipogenesis in preadipocytes from human visceral fat; type: cell-based
ob/ob mice = experiment: ob/ob mice, intraperitoneal administration, 3 weeks; type: in vivo, mouse; details: for percentage of subcutaneous fat relative to total body fat / RBP4 plasma levels as compared to vehicle: retinoids 500 nM
Text: The Standing Committee On Animals at Harvard Medical School approved all protocols.
MRI data (1 mm slices) obtained on a Bruker Avance 500 wide bore spectrometer (11.7 T; 500 MHz for proton) fitted with a gradient amplifier and a 30 mm “birdcage” transmitter/receiver coil was processed with Paravision™ software. Spin Echo parameters included TI weighted images: TE=15 ms and TR=300 ms, matrix=256, FOV=30 mm; RARE images: TE=51 ms, TR=2500 ms, matrix=256, FOV=30 mm. Abdominal fat measurements used axial slices (n=8) at the level of the left renal pelvis.
After acclimation to powdered high fat diet (4 d), food/water intake, oxygen consumption, and carbon dioxide production were measured in metabolic cages (Ancare, Charles River Laboratories). Calculated metabolic rate (Weir equation) was expressed per g body weight. We performed insulin (ITT) and glucose tolerance tests (GTT) after food deprivation (16 h) using intraperitoneal insulin injection (ITT, 0.1 U/ml 0.005 ml/g body weight) or single 25% dextrose (GTT, 0.004 mL/g body weight) administration and glucometer measurements (Accu-Chek Advantage, Roche).
After 3 weeks, subcutaneous fat mass was quantified by magnetic resonance imaging (MRI).

RXRα-LBD = biological target: T3, RXRα-LBD (Homo sapiens, UniProt P19793); experiment: LBD-GAL4 transfection assay, RXRα-LBD; type: cell-based
T3 construct: expressed in transfected cells; host or cells: NIH 3T3 cells
T3 sequence (P19793 227-458 limits assumed): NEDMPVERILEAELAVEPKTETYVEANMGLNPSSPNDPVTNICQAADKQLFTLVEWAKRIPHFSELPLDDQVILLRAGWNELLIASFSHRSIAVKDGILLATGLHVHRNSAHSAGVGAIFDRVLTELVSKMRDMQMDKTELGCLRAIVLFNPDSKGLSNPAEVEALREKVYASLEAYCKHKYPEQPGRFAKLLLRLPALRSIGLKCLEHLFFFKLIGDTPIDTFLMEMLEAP
Text: as §3, §4

PPARγ-LBD = biological target: T4, PPARγ-LBD (Homo sapiens, UniProt P37231); experiment: Cell-based PPARγ-LBD assay; details: presence of BRL; concentrations <1 μM
T4 construct: expressed in transfected cells; host or cells: NIH 3T3 cells
T4 sequence (P37231 238-503 limits assumed): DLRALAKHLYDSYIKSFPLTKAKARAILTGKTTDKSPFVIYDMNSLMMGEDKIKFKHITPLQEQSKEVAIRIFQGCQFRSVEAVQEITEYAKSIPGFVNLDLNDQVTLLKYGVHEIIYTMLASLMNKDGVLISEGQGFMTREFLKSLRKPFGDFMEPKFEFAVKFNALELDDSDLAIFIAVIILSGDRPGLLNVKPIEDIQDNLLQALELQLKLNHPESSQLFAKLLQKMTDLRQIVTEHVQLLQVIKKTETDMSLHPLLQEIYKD
Text: as §3, §2

[4] = test system: RXRα/RXRβ siRNA-treated 3T3-L1 adipocytes; experiment: 3T3-L1 adipogenesis assay after RXRα/RXRβ siRNA; type: cell-based, mouse; details: RXRα/RXRβ siRNA 48 hours, differentiation 7 days
Text: as §3, §1
To evaluate Rald effects in an RXR loss of function model, 3T3-L1 adipogenesis assays in the presence of Rald were repeated but after first decreasing RXRα and RXRβ levels using siRNA to each RXR isotype. […]

rats = details: cited from earlier work
[5] = cell-free radioligand displacement, read-out: Kd, displacement of high affinity PPARγ agonists
[6] = summary statement, unit inferred, read-out: Kd, receptor binding
[7] = MRI after 3 weeks, i.p., citral 10 μM

CC1=C(/C=C/C(C)=C\C=C\C(C)=C\C(=O)O)C(C)(C)CCC1 [9-cis RA, reference compound]
adiponectin expression, compound added early [1]: inhibited | adiponectin expression / adipogenesis, compound added later [1]: no effect

CC1=C(/C=C/C(C)=C\C=C\C(C)=C\C=O)C(C)(C)CCC1 [9-cis Rald]
Kd (Human full-length PPARγ2; [5]): 5.9 ± 0.7 µM | Kd (Human full-length PPARγ2; [6]): 5.9 ± 0.7 µM

CC1=C(/C=C/C(C)=C/C=C/C(C)=C/C=O)C(C)(C)CCC1 [13-cis Rald]
Kd (Human full-length PPARγ2; [5]): 9.7 ± 1.2 µM | Kd (Human full-length PPARγ2; [6]): 9.7 ± 1.2 µM

CN(CCOc1ccc(CC2SC(=O)NC2=O)cc1)c1ccccn1 (stereo not drawn) [BRL, rosiglitazone, reference compound]
adiponectin levels induced by BRL stimulation [1]: six-fold increase

CC1=C(/C=C/C(C)=C/C=C/C(C)=C/C=O)C(C)(C)CCC1 [Rald, retinaldehyde]
inhibition of PPRE activation ([2]; PPARγ and RXR co-transfection and PPARγ agonist stimulation): 60% | PPRE activation by both agonists (9-cis RA or BRL) ([2]; RXR and/or PPARγ transfection): significantly inhibited | RARα-LBD activation (RARα-LBD; compound alone, 3T3-NIH fibroblasts): weakly activated | RARα-LBD activation by 9-cis RA (RARα-LBD; in presence of 9-cis RA): did not alter | adipogenesis [3]: repressed | subcutaneous fat (ob/ob mice; MRI after 3 weeks, i.p. 500 nM): significantly less subcutaneous fat | percentage of subcutaneous fat relative to total body fat (ob/ob mice; [7]): 15.5±0.6% | glucose tolerance (ob/ob mice; i.p., Rald 500 nM, citral 10 μM): improved | RBP4 plasma levels as compared to vehicle (ob/ob mice; i.p., citral 10 μM): significantly suppressed | Kd (Human full-length PPARγ2; [6]): 11.9 ± 1.9 µM | RXRα-LBD activation (RXRα-LBD; compound alone): no effect | RXRα-LBD activation by 9-cis RA (RXRα-LBD; in presence of 9-cis RA): significantly inhibited | adiponectin levels induced by BRL stimulation [1]: mitigated | mRNA expression of adipogenic target genes CD36, adiponectin, aP2 ([1]; Rald levels as low as 100 nM, presence or absence of BRL): suppressed | lipid accumulation ([1]; absence and presence of BRL): decreased | adiponectin expression, compound added early [1]: inhibited | adiponectin expression / adipogenesis, compound added later [1]: also inhibited adipogenesis | adiponectin secretion ([1]; stimulation early or late, concentration-dependent): decreased | PPARγ-LBD activation (PPARγ-LBD): suppresses | adiponectin secretion after siRNA exposure [4]: no additional effects | triglyceride accumulation after siRNA exposure [4]: further decreased

CC1=C(/C=C/C(C)=C/C=C/C(C)=C/C(=O)O)C(C)(C)CCC1 [all-trans RA, Retinoic acid, reference compound]
percentage of subcutaneous fat relative to total body fat (ob/ob mice; [7]): 19.1±1.6% | RBP4 plasma levels as compared to vehicle (ob/ob mice; i.p., citral 10 μM): no effect | adiponectin expression / adipogenesis, compound added later [1]: no effect

CC(C)=CCCC(C)=CC=O [citral, 3,7-dimethyl-2,6-octadienal]
RBP4 plasma levels as compared to vehicle (ob/ob mice; i.p., citral 10 μM): significantly suppressed | tolerability (rats; high doses, rats): well tolerated | body weight versus citral free diet (rats; rats fed a diet with citral): weighed less

CC1=C(/C=C/C(C)=C/C=C/C(C)=C/CO)C(C)(C)CCC1 [vitamin A, retinol, reference compound]
percentage of subcutaneous fat relative to total body fat (ob/ob mice; [7]): 17.3±1.3% | RBP4 plasma levels as compared to vehicle (ob/ob mice; i.p., citral 10 μM): increased RBP4 plasma levels two-fold
